Laboratory results: patent publication US20230416852A1, “METHODS FOR IDENTIFYING COMPOSITIONS FOR INHIBITING VIRAL INFECTIVITY” (priority 2020, published 2023)
Where two headings read alike, the source gives them in different places.

How the values were obtained:
[1] = target: T1, Vif function of inhibiting A3G CDA (Human immunodeficiency virus type 1 group M subtype B, UniProt P69723); test: biochemical; assay type: biochemical, HIV-1; settings: for hit for restoring A3G CDA in the presence of Vif: 10 μM compounds, 20% cutoff stringency, i.e. 20% increase in A3G CDA versus controls, positive control set as 1
Text: The A3G CDA edits the CCC sequence to predominantly to a CCU sequence. To specifically measure the C to U rate, three reverse primers R1, R2, and R3 were designed in the initial study.
Using the qPCR-based screening assay described in Example 1, the NCI Diversity Set VI, NCI Mech Set V, and NIH SMR were screened against Vif function of inhibiting A3G. The NCI Diversity Set VI was derived from almost 140,000 compounds available for distribution in the library of the NCI Developmental Therapeutics Program. […] The qPCR-based CDA assay was used to screen the libraries in 96-well plates with negative controls (no A3G and Vif), positive control (no Vif), and 10 μM compounds. Hits were selected at 20% cutoff stringency (above 0.2), i.e., 20% increase in A3G CDA versus controls. Any compounds that restored A3G activity by 20% or more were selected. The positive control was set as 1.

[2] = target: T1, Vif function of inhibiting A3G CDA; assay type: biochemical, HIV-1; settings: dose-response retest in qPCR-based CDA assay
[3] = tested on: A3G expression, Gag expression and processing; test: Western blot of A3G stability and Gag in transfected 293T cells; assay type: cell-based; settings: 5 μM
Protocol: (§1) An A3G expression vector was co-transfected with Vif, or with the empty vector as control. The A3G expression vector was also co-transfected with either a wild-type viral construct HXB2, Vif deficient viral construct HXB2ΔVif, or pcDNA3.1 (as a control) into 293T cells. Immediately following transfection, 5 μM Compound II (redoxal) was used to treat the 293T cells. After 48 hours post-transfection, culture supernatants were subjected to ultracentrifuge to pellet down the virus. Viral lysates were analyzed by Western blot.

HIV in PBMC = settings: previous report, Pery E et al. Virology 2015; cited from earlier work
HIV IIIB virus = test: MAGI assay of HIV infectivity in TZM-bl cells; assay type: cell-based, HIV-1; settings: Human immunodeficiency virus 1, IIIB, 48 h, read-out: IC50 antiviral activity
Text: MAGI assay is a classical method for measuring HIV infectivity (Platt E J et at J Virol 72:2855-2864 (1998)). The assay involves HIV infecting a reporter cell line, the TZM-bl cell line (Platt E J et at J Virol 72:2855-2864 (1998); Derdeyn C A et al. J Virol 74:8358-8367 (2000); Wei X et al. Antimicrob Agents Chemother 46:1896-1905 (2002)). The TZM-bl cell line is a Hela cell derivative that expresses CD4, rendering the cells permissive to HIV-1 infection. These cells also contain an integrated LTR-luciferase and β-galactosidase reporter genes, resulting in expression of firefly luciferase and β-galactosidase protein following HIV-1 integration and subsequent expression of the viral transactivator, Tat.
300 ng of p24 content of HIV IIIB virus was used to infect TZM-bl cells. Different doses of Compound II (redoxal) and C5 were used to treat the infected cells. DMSO treatment was used as a control. Two days post-infection, cells were fixed and β-galactosidase was stained to visualize the infected cells.

[4] = target: T1, Vif function of inhibiting A3G CDA; assay type: biochemical, HIV-1
Text: This assay detects C to U mutation using a highly specific Stu I restriction enzyme digestion method. FIG. 4A is a schematic diagram of the PCR and restriction digestion-based CDA assay. CCC-150 is converted to CCU-150 under the enzymatic activity of A3G. […] In the presence of Vif, Vif will inhibit A3G enzymatic activity, so that reduced or no CCU-150 will be produced. Therefore, less or no Stu I cutting sites will form, and no digestion will occur.
The CDA products were subjected to PCR followed by Stu I digestion. The digestion products were applied to a 10% polyacrylamide gel for separation. SYBR Gold was used to visualize the bands. L-Cefixime refers to Compound I identified above.

HIV IIIB replication = HIV IIIB replication in A3G-expressing CEM-GFP cells; assay type: cell-based, HIV-1; settings: Human immunodeficiency virus 1, IIIB, FIG. 6A, read-out: IC50 inhibiting HIV IIIB replication
Protocol: (§2) As discussed above, Vif functions as an inhibitor to A3G antiviral function. […] The A3G-dependent antiviral effects of the hits were tested using CD4+T, CEM-GFP, and CEM SS cell lines. […] The Vif specific inhibitor should show high anti-HIV potency in CEM-GFP cells (and not in CEM SS cells). The CEM-GFP cell line expresses GFP upon HIV infection driven by HIV NL4-3 LTR. It can be used to measure HIV replication (Gervaix A, et at Proc Natl Acad Sci USA. 1997; 94 (9):4653-8.)

HIV-1 NL4-3-GFP = HIV-1 NL4-3-GFP infection of CEM SS cells (no A3G); assay type: cell-based; settings: CEM SS cells compared to CEM-GFP cells, FIG. 6B
Protocol: as §2
In FIG. 6B, HIV-1 NL4-3-GFP was used to infect CEM SS cell line.

CEM cells = test: Presto Blue Cytotoxicity Assay; settings: read-out: IC50 cytotoxicity, FIG. 6C
Text: In this assay, live cells show 586 nm fluoresce red. The higher the fluorescence, the more viable the cells are. Therefore, 100% cell death should result in no fluorescence.

[5] = tested on: Vif induced A3G degradation; test: Western blot of Vif induced A3G degradation in transfected 293T cells; assay type: cell-based; settings: 5 μM, FIG. 7A
Protocol: as §1, with “quinobene” for “Compound II (redoxal)”

A3G viral encapsidation = test: Western blot of A3G viral encapsidation (viral lysates from 293T cells); assay type: cell-based; settings: 5 μM, FIG. 7B
Protocol: as §1, with “quinobene” for “Compound II (redoxal)”

[6] = tested on: A3G related G to A hypermutation in HIV-1 viral cDNA; test: G to A hypermutation analysis of HIV-1 viral cDNA by next-generation sequencing in SupT1 cells; assay type: cell-based; settings: 1 μM; for average G to A hypermutation rate for each position: average over positions; for average G to A hypermutation rate for each position / G to A hypermutation rate / total G to A hypermutation rate: 6 hours, SupT1, HIV IIIB; for total G to A hypermutation rate: total over all positions
Protocol: The hallmark of A3G antiviral function is to induce G to A hypermutation in HIV cDNA. Therefore, it is very important to evaluate whether quinobene restores A3G's capability to induce G to A hypermutation rates in HIV cDNA. To do this, SupT1 cells were infected with HIV IIIB (350 ng p24)+DMSO or HVI IIIB (350 ng p24)+1 μM quinobene for 6 hours. After infection, DNA was isolated using a DNeasy Blood and Tissue DNA isolation kit (QIAGEN). A 199-bp DNA fragment covering a portion of LTR of HIV-1 was amplified with Taq DNA polymerase using the primers IIIB-F (5′-[…]) and HIV-1-R (5′-[…]). The PCR products were purified by QIAquick PCR Purification Kit (Qiagen) and sent to GENEWIZ, Inc (South Plainfield, NJ) for G to A hypermutation analysis using their Amplicon-EZ service, a next-generation sequencing-based sequencing service, allowed detection of low-frequency variants quantitatively. The G to A hypermutation rate was calculated using CLC Genomic Workbench.

T1 sequence (P69723 whole entry): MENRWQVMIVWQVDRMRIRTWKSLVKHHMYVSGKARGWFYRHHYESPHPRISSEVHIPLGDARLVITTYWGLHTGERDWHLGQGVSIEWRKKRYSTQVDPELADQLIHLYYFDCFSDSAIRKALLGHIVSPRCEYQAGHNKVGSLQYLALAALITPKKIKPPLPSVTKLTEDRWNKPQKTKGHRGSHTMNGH

SMILES: Cn1c(SCc2ccccn2)nc2c1c(=O)[nH]c(=O)n2C [Compound VII]
- hit for restoring A3G CDA in the presence of Vif [1]: hits

SMILES: C[C@@H]1C/C=C/C=C/C=C/C=C/[C@H](O[C@@H]2O[C@H](C)[C@@H](O)[C@H](N)[C@@H]2O)C[C@@H]2O[C@](O)(C[C@@H](O)C[C@H]3O[C@@H]3/C=C/C(=O)O1)C[C@H](O)[C@H]2C(=O)O [IV, natamycin, reference compound]
- hit for restoring A3G CDA in the presence of Vif [1]: hits
- activity in retest [2]: did not show any activity

SMILES: Oc1ccccc1-c1nc2c3ccccc3c3ccccc3c2[nH]1 [Compound VI]
- hit for restoring A3G CDA in the presence of Vif [1]: hits

SMILES: COc1cc(-c2ccc(Nc3ccccc3C(=O)O)c(OC)c2)ccc1Nc1ccccc1C(=O)O [Compound II, redoxal]
- A3G expression ([3]; FIG. 8): enhances A3G expression independent of Vif
- Gag processing patterns ([3]; FIG. 8): may alter Gag processing patterns
- overall Gag expression ([3]; FIG. 8): reduces overall Gag expression
- overall Gag expression ([3]; FIG. 8, listed as redoxal): reduced overall Gag expression
- IC50 (HIV in PBMC): 0.6 to 3 µM
- IC50 (HIV IIIB virus): < 4 µM
- EC50 [1]: < 12.5 µM
- hit for restoring A3G CDA in the presence of Vif [1]: hits
- restoration of Stu I digestion product ([4]; 50 μM): dramatically restored the digestion product

SMILES: O=c1c2ccccc2ncn1-c1ccc(Cl)cc1 [Compound V]
- hit for restoring A3G CDA in the presence of Vif [1]: hits

SMILES: O=S(=O)(O)c1cc(N=Nc2cc(S(=O)(=O)O)c3cccnc3c2O)ccc1C=Cc1ccc(N=Nc2cc(S(=O)(=O)O)c3cccnc3c2O)cc1S(=O)(=O)O [Compound IX, quinobene]
- IC50 (HIV IIIB replication): < 0.75 µM
- antiviral function (HIV-1 NL4-3-GFP): lost its antiviral function
- hit for restoring A3G CDA in the presence of Vif [1]: hits and hit
- IC50 (CEM cells): ~50 µM
- influence on Vif induced A3G degradation [5]: minimal to no influence
- effects on A3G viral encapsidation (A3G viral encapsidation): minimal to no effects
- positions showing G to A hypermutation rate increases ([6]; 22 out of 26 positions versus untreated): 84.6%
- average G to A hypermutation rate for each position ([6]; listed as Quino): 2.32%
- average G to A hypermutation rate for each position ([6]; listed as quinobene): 2.31%
- G to A hypermutation rate ([6]; position 22): 5.51%
- G to A hypermutation rate ([6]; position 23): 0.27%
- G to A hypermutation rate ([6]; position 35): 1.92%
- G to A hypermutation rate ([6]; position 36): 3.87%
- G to A hypermutation rate ([6]; position 37): 0.43%
- G to A hypermutation rate ([6]; position 47): 1.84%
- G to A hypermutation rate ([6]; position 48): 0.38%
- G to A hypermutation rate ([6]; position 51): 0%
- G to A hypermutation rate ([6]; position 56): 0.53%
- G to A hypermutation rate ([6]; position 61): 6.47%
- G to A hypermutation rate ([6]; position 62): 0%
- G to A hypermutation rate ([6]; position 65): 5.65%
- G to A hypermutation rate ([6]; position 68): 0.38%
- G to A hypermutation rate ([6]; position 71): 2.13%
- G to A hypermutation rate ([6]; position 72): 2.1%
- G to A hypermutation rate ([6]; position 73): 0.28%
- G to A hypermutation rate ([6]; position 78): 0.28%
- G to A hypermutation rate ([6]; position 126): 8.57%
- G to A hypermutation rate ([6]; position 127): 0.33%
- G to A hypermutation rate ([6]; position 136): 1.39%
- G to A hypermutation rate ([6]; position 157): 8.43%
- G to A hypermutation rate ([6]; position 158): 0.19%
- G to A hypermutation rate ([6]; position 168): 0.6%
- G to A hypermutation rate ([6]; position 177): 4.16%
- G to A hypermutation rate ([6]; position 178): 2.37%
- total G to A hypermutation rate ([6]; listed as Quino): 58.08%
- total G to A hypermutation rate ([6]; listed as quinobene): 58%
- restoration of Stu I digestion product ([4]; 5 uM): dramatically restored the digestion product

SMILES: O=c1c(-c2ccc(O)cc2)coc2cc(O)cc(O)c12 [III, genistein]
- hit for restoring A3G CDA in the presence of Vif [1]: hits
- activity in retest [2]: did not show any activity

SMILES: C=CC1=C(C(=O)O)N2C(=O)[C@@H](NC(=O)/C(=N\OCC(=O)O)c3csc(N)n3)[C@H]2SC1 [Compound I, cefixime, reference compound]
- EC50 [1]: > 500 µM
- hit for restoring A3G CDA in the presence of Vif [1]: hits
- restoration of Stu I digestion product ([4]; 10 μM): dramatically restored the digestion product
